Experimental data: patent US20120016011A1, “RNA Interference Mediated Inhibition of Connective Tissue Growth Factor (CTGF) Gene Expression Using Short Interfering Nucleic Acid (siNA)” (Merck Sharp & Dohme Corp., priority 2009, published 2012)
[invAb] = inverted abasic unit; m = 2'-O-methyl; r = 2'-OH (RNA); f = 2'-fluoro

How the values were obtained:
Format in all cases: cell-based
GAPDH mRNA = GAPDH mRNA reduction (normalizer, check for toxicity) in siNA-transfected NHLF cells; details: human NHLF cells, mean ± S.D.
Procedure: NHLF (Normal human lung fibroblasts; Lonza cat# CC-2512): Cells were cultured at 37° C. in the presence of 5% CO2 and grown in Fibroblast Basal Medium (Lonza cat# CC-3132) supplemented with 2% FBS and growth factors (provided with the kit) and 100 μg/mL of streptomycin and 100 U/mL penicillin.
Cells were plated in all wells of a tissue-culture treated, 96-well plate at a final count of 5000 cells/well in […], of the appropriate culture media. The cells were cultured for 24 hours after plating at 37° C. in the presence of 5% CO2.
After 24 hours, complexes containing siNA and RNAiMax were created as follows: A solution of RNAiMax diluted 33-fold in OPTI-MEM was prepared. In parallel, solutions of the siNAs for testing were prepared to a final concentration of 120 nM in OPTI-MEM. After incubation of RNAiMax/OPTI-MEM solution at room temperature for 5 min, an equal volume of the siNA solution and the RNAiMax solution were added together for each of the siNAs.
This solution was incubated at room temperature for 20 minutes. After incubation, 20 uL of the solution was added to each of the relevant wells. The final concentration of siNA in each well was 10 nM and the final volume of RNAiMax in each well was 0.3 ul.
The time of incubation with the RNAiMax-siNA complexes was 24 hours and there was no change in media between transfection and harvesting, unless otherwise indicated.
A series of probes and primers were used to detect the various mRNA transcripts of the genes of β-Actin (human cell line only), and of CTGF and GAPDH in mouse and human cell lines. All Taqman probes and primers for the experiments here-in described were supplied as pre-validated sets by Applied Biosystems, Inc. (see Table 3).
The assays were performed on an ABI 7900 instrument, according to the manufacturer's instructions. A TaqMan Gene Expression Master Mix (provided in the Cells-to-CT™, Applied Biosystems, Cat # 4399002) was used. The PCR reactions were carried out at 50° C. for 2 min, 95° C. for 20 min followed by 40 cycles at 95° C. for 15 secs and 60° C. for 1 min.
Additionally, only normalized data, which reflects the general health of the cell and quality of the RNA extraction, was examined. This was done by looking at the level of two different mRNAs in the treated cells, the first being the target mRNA and the second being the normalizer mRNA. This allowed for elimination of siNAs that might be potentially toxic to cells rather than solely knocking down the gene of interest. This was done by comparing the Ct for GAPDH in each well relative to the Ct for the entire plate.

CTGF mRNA [1] = assay: CTGF mRNA knockdown (Taqman RT-PCR) after siNA transfection of mouse NIH 3T3 cells; details: mouse NIH3T3 cells, 10 nM siNA, 24 hrs, average of 3 experiments, vs non-targeting control
How it was run: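 Mouse NIH 3T3 cells, 5000/well, transfected 24 h after plating with siNA at 10 nM final using RNAiMax, 24 h exposure without media change. CTGF mRNA by TaqMan RT-qPCR with GAPDH, knockdown via comparative Ct (2^−ΔΔCt) against non-targeting control siNA.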

CTGF mRNA [2] = assay: CTGF mRNA knockdown (Taqman RT-PCR) after siNA transfection of human NHLF cells; details: for % KD Human: 10 nM siNA, 24 hrs, average of 3 experiments, vs non-targeting control; for % KD CTGF mRNA at 10 nM / IC50: mean ± S.D.
How it was run: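 Normal human lung fibroblasts (5000 cells/well) were transfected 24 h after plating with 10 nM siNA complexed with RNAiMax and harvested 24 h later without a media change. CTGF mRNA was measured by TaqMan RT-qPCR on Cells-to-CT lysates, with β-actin and GAPDH assayed alongside. Knockdown was calculated by comparative Ct (ΔΔCt) against non-targeting control siNA.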

48042-DC: siNA duplex; sense SEQ ID NO: 49 B GAcAuuAAcucAuuAGAcu TTB; antisense SEQ ID NO: 50 AGUcuAAuGAGuuAAuGucUU (sense GACAUUAACUCAUUAGACUTT; antisense AGUCUAAUGAGUUAAUGUCUU; sense: DNA at AGT, 2'-fluoro at CU, [invAb] at 5' end, 3' end, backbone not given here; antisense: sugars from the 5' end rrrffmmfmmmffmmfmffmm, backbone not given here)
% Reduction GAPDH mRNA at 10 nM (GAPDH mRNA): −43 ± 32%
% KD Mouse (CTGF mRNA [1]): 30 ± 4%
% KD Human (CTGF mRNA [2]): 90 ± 1%
% KD CTGF mRNA at 10 nM (CTGF mRNA [2]): 90 ± 1%
IC50 (CTGF mRNA [2]): 0.095 ± 0.022 nM

48046-DC: siNA duplex; sense SEQ ID NO: 57 B cAcAGcAccAGAAuGuAuA TTB; antisense SEQ ID NO: 58 UAUAcAuucuGGuGcuGuGUU (sense CACAGCACCAGAAUGUAUATT; antisense UAUACAUUCUGGUGCUGUGUU; sense: DNA at AGT, 2'-fluoro at CU, [invAb] at 5' end, 3' end, backbone not given here; antisense: sugars from the 5' end rrrmfmffffmmfmffmfmmm, backbone not given here)
% Reduction GAPDH mRNA at 10 nM (GAPDH mRNA): −53 ± 14%
% KD Mouse (CTGF mRNA [1]): 19 ± 3%
% KD Human (CTGF mRNA [2]): 85 ± 3%
% KD CTGF mRNA at 10 nM (CTGF mRNA [2]): 85 ± 3%
IC50 (CTGF mRNA [2]): 0.031 ± 0.011 nM

48047-DC: siNA duplex; sense SEQ ID NO: 59 B cGAGuAAuAuGccuGcuAu TTB; antisense SEQ ID NO: 60 AUAGcAGGcAuAuuAcucGUU (sense CGAGUAAUAUGCCUGCUAUTT; antisense AUAGCAGGCAUAUUACUCGUU; sense: DNA at AGT, 2'-fluoro at CU, [invAb] at 5' end, 3' end, backbone not given here; antisense: sugars from the 5' end rrrmfmmmfmfmffmfffmmm, backbone not given here)
% Reduction GAPDH mRNA at 10 nM (GAPDH mRNA): −5 ± 14%
% KD Mouse (CTGF mRNA [1]): 18 ± 3%
% KD Human (CTGF mRNA [2]): 81 ± 3%
% KD CTGF mRNA at 10 nM (CTGF mRNA [2]): 81 ± 3%
IC50 (CTGF mRNA [2]): 0.071 ± 0.03 nM

48048-DC: siNA duplex; sense SEQ ID NO: 61 B GAuAGcAucuuAuAcGAGu TTB; antisense SEQ ID NO: 62 ACUcGuAuAAGAuGcuAucUU (sense GAUAGCAUCUUAUACGAGUTT; antisense ACUCGUAUAAGAUGCUAUCUU; sense: DNA at AGT, 2'-fluoro at CU, [invAb] at 5' end, 3' end, backbone not given here; antisense: sugars from the 5' end rrrfmfmfmmmmfmffmffmm, backbone not given here)
% Reduction GAPDH mRNA at 10 nM (GAPDH mRNA): −2 ± 10%
% KD Mouse (CTGF mRNA [1]): 21 ± 5%
% KD Human (CTGF mRNA [2]): 80 ± 3%
% KD CTGF mRNA at 10 nM (CTGF mRNA [2]): 80 ± 3%
IC50 (CTGF mRNA [2]): 0.049 ± 0.016 nM

48055-DC: siNA duplex; sense SEQ ID NO: 75 B cAAGuuAuuuAAAucuGuu TTB; antisense SEQ ID NO: 76 AACAGAuuuAAAuAAcuuGUU (sense CAAGUUAUUUAAAUCUGUUTT; antisense AACAGAUUUAAAUAACUUGUU; sense: DNA at AGT, 2'-fluoro at CU, [invAb] at 5' end, 3' end, backbone not given here; antisense: sugars from the 5' end rrrmmmfffmmmfmmfffmmm, backbone not given here)
% Reduction GAPDH mRNA at 10 nM (GAPDH mRNA): −18 ± 4%
% KD Mouse (CTGF mRNA [1]): 24 ± 2%
% KD Human (CTGF mRNA [2]): 88 ± 0%
% KD CTGF mRNA at 10 nM (CTGF mRNA [2]): 88 ± 0%
IC50 (CTGF mRNA [2]): 0.11 ± 0.038 nM
